The values that follow are results of earlier work, collected in patent publication US20110059175A9, “ENHANCING SOLUBILITY AND DISSOLUTION RATE OF POORLY SOLUBLE DRUGS” (K.U.LEUVEN RESEARCH AND DEVELOPMENT, priority 2006, published 2011).

Test in series [1]: not given
The source holds these as a separate data set.

Test in series [2]: not given
The source holds these as a separate data set.

For series [3] the following is noted: determined; Peeters et al., 2002.

Values after ≈ are worked out from the molar mass of the structure shown. Like-named read-outs stand apart in the source and are kept apart here.

For `NC(=O)N1c2ccccc2C=Cc2ccccc21` [Carbamazepine, 5H-dibenz[b,f]azepine-5-carboxamide], where the note is “water”, the “solubility in water” value was “practically insoluble”.
As to `C#C[C@]1(O)CC[C@H]2[C@@H]3CCC4=Cc5oncc5C[C@]4(C)[C@H]3CC[C@@]21C` [Danazol, 17a-Pregna-2,4-dien-20-yno[2,3-d]-isoxazol-17-ol], the “time at which peak concentrations occur” value in series [1] (administered orally) was no more than 2 h. In addition, in series [1] (doubling the dose), the “increase in plasma concentration on doubling the dose” value is on record as 30-40%. Besides, in series [1] (in vivo), the half-life was 4 to 5 h.
On to `CCC(C)n1ncn(-c2ccc(N3CCN(c4ccc(OCC5COC(Cn6cncn6)(c6ccc(Cl)cc6Cl)O5)cc4)CC3)cc2)c1=O` (centres unmarked) [Itraconazole], for which, in series [2], the permeability result was “adequate”. The “aqueous solubility (S)” value (neutral pH) is roughly 0.001 µg/mL (≈ 0.00142 µM) and the “aqueous solubility (S)” value (pH 1) is 4 µg/mL (≈ 5.67 µM). In addition, the pKa4 in series [3] is given as 4.0.
